Values of other authors in patent US20060073200A1, “Lercanidipine capsules” (Recordati Ireland Limited, priority 2004, published 2006).
Where two headings read alike, the source gives them in different places.

What was measured:
[1] = molecular target: cytochrome P450 IIIA4 isoenzyme (Homo sapiens, UniProt P08684); conditions: extensive presystemic first pass elimination
[2] = not given; remark: listed apart in the source

cytochrome P450 IIIA4 isoenzyme, sequence (P08684 whole entry): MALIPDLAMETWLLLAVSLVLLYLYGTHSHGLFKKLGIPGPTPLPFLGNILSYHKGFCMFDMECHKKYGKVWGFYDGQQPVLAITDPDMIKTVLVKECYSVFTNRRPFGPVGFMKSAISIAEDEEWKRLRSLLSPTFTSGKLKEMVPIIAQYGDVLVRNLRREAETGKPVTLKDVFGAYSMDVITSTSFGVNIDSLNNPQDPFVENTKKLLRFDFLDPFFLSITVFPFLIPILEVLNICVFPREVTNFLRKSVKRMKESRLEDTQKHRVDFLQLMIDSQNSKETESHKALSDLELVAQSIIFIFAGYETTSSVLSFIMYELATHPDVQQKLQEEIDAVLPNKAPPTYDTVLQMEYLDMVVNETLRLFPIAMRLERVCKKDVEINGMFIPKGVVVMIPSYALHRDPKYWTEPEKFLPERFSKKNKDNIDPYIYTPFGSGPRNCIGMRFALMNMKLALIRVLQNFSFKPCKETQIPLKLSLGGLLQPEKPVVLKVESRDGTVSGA

solubility (acidic media, at pH 5): less than 20 μg/ml | solubility (pH greater than 5): less than 5 μg/ml | aqueous solubility (water, lercanidipine and its salts): about 5 μg/ml | Paap (Caco-2 cell apparatus): 0.05 ×10⁻⁶ cm/s | substrate for cytochrome P450 IIIA4 isoenzyme [1]: substrate | increase in amount of lercanidipine absorbed with simultaneous intake of food ([2]; food (especially high fat content) compared to administration without food): three to four fold | plasma level of lercanidipine ([2]; immediate release dosage forms, by 24 h): below 1 ng/ml | peak plasma level (Tmax) ([2]; oral administration of an immediate release form): 1 to 3 h
SMILES: COC(=O)C1=C(C)NC(C)=C(C(=O)OC(C)(C)CN(C)CCC(c2ccccc2)c2ccccc2)C1c1cccc([N+](=O)[O-])c1 (centres unmarked) [Lercanidipine, methyl 1,1,N-trimethyl-N-(3,3-diphenylpropyl)-2-aminoethyl 1,4-dihydro-2,6-dimethyl-4-(3-nitrophenyl)pyridine-3,5-dicarboxylate]
